ChEMBL document CHEMBL4184188, “Characterization of tyrosinase inhibitory constituents from the aerial parts of Humulus japonicus using LC-MS/MS coupled online assay” (Bioorg Med Chem, 2018)
The source made the active and inactive calls. The rule behind the calls is not given here.

Legend:
[1] = target: T1, Tyrosinase (Agaricus bisporus) (UniProt O42713); assay: Inhibition of mushroom tyrosinase using tyrosine as substrate pretreated for 5 mins followed by substrate addition measured after 20 mins by ELISA
T1 sequence (whole entry): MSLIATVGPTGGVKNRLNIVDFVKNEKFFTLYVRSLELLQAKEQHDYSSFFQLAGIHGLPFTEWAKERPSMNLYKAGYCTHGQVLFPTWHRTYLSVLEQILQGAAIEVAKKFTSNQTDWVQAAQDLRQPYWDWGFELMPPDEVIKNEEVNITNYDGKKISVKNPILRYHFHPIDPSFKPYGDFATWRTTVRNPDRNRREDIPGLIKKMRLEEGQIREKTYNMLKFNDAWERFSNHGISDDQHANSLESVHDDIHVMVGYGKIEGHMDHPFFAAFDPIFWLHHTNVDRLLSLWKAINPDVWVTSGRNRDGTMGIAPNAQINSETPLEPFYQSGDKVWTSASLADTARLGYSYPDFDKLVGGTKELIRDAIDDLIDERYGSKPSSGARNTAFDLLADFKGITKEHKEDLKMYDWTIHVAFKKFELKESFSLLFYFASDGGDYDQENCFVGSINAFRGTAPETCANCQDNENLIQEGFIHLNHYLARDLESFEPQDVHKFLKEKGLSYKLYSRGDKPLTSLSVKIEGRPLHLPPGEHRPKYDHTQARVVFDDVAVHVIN

[2] = target: T1, Tyrosinase (Agaricus bisporus); assay: Inhibition of mushroom tyrosinase at 100 uM using tyrosine as substrate pretreated for 5 mins followed by substrate addition measured after 20 mins by ELISA relative to control

SMILES: COc1ccc(C(C)=O)cc1OC
- inhibition [1]: inactive

SMILES: O=C(O)c1c[nH]c2ccccc12
- inhibition [1]: Active

SMILES: C/C(=C\COC(=O)c1ccccc1)CO[C@@H]1O[C@H](CO)[C@@H](O)[C@H](O)[C@H]1O
- inhibition [1]: Active

SMILES: CC1(C)C[C@@H](O)C[C@]2(C)OC(=O)C=C12
- inhibition [1]: inactive

SMILES: CC1=CC(=O)CC(C)(C)[C@@]1(O)CC[C@H](C)O
- inhibition [1]: inactive

SMILES: COc1cc2ccc(=O)oc2cc1O
- inhibition [1]: Active
- inhibition [2]: > 30%

SMILES: COc1cc2oc(=O)ccc2cc1O
- inhibition [1]: Active
- inhibition [2]: > 30%

SMILES: COc1cc(/C=C/C(=O)NCCc2ccc(O)cc2)ccc1O
- inhibition [1]: inactive

SMILES: O=C(/C=C\c1ccc(O)cc1)NCCc1ccc(O)cc1
- inhibition [1]: Active

SMILES: O=c1cc(-c2ccc(O)cc2)oc2cc(O)cc(O)c12
- inhibition [1]: Active

SMILES: CC(=O)/C=C/[C@H]1C(C)=C[C@H](O)CC1(C)C
- inhibition [1]: inactive

SMILES: O=Cc1ccccc1
- inhibition [1]: Active

SMILES: NC(=O)/C=C/c1ccc(O)cc1
- inhibition [1]: Active

SMILES: CC(=O)/C=C/[C@@]12O[C@]1(C)C[C@@H](O)CC2(C)C
- inhibition [1]: inactive

SMILES: O=C(/C=C/c1ccc(O)cc1)NCCc1ccc(O)cc1
- inhibition [1]: Active

SMILES: CC(=O)C=C=C1C(C)(C)C[C@H](O)C[C@@]1(C)O
- inhibition [1]: inactive

SMILES: COc1cc(C(=O)O)ccc1O
- inhibition [1]: inactive

SMILES: CCOC(C)=O
- inhibition [1]: Active

SMILES: O=c1cc(-c2ccc(O)c(O)c2)oc2cc(O)cc(O)c12
- inhibition [1]: Active

SMILES: CC1(C)C[C@@H](O)C[C@@]2(C)OC(=O)C=C12
- inhibition [1]: inactive

SMILES: COC(=O)c1c[nH]c2ccccc12
- inhibition [1]: Active

SMILES: C=CCc1ccc(O[C@@H]2O[C@H](CO)[C@@H](O)[C@H](O)[C@H]2O)c(OC)c1
- inhibition [1]: inactive

SMILES: O=c1cc(-c2ccc(O)cc2)oc2c([C@@H]3O[C@H](CO)[C@@H](O)[C@H](O)[C@H]3O)c(O)cc(O)c12
- inhibition [1]: inactive

SMILES: O=c1cc[nH]c(=O)[nH]1
- inhibition [1]: Active

SMILES: CC1=CC(=O)CC(C)(C)/C1=C/C[C@@H](C)O
- inhibition [1]: inactive

SMILES: O=Cc1c[nH]c2ccccc12
- inhibition [1]: Active
- inhibition [2]: > 30%

SMILES: O=C(O)c1ccc(O)cc1
- inhibition [1]: Active

SMILES: COc1ccc(C=O)cc1O
- inhibition [1]: inactive

SMILES: COc1cc(C(C)=O)ccc1O
- inhibition [1]: inactive

SMILES: C/C(=C\COC(=O)c1ccccc1O)CO[C@@H]1O[C@H](CO)[C@@H](O)[C@H](O)[C@H]1O
- inhibition [1]: Active
- inhibition [2]: > 30%

SMILES: COc1cc(/C=C\C(=O)NCCc2ccc(O)cc2)ccc1O
- inhibition [1]: inactive

SMILES: NC(=O)c1cccnc1
- inhibition [1]: Active

SMILES: CC(=O)/C=C/[C@@]1(O)C(C)=CC(=O)CC1(C)C
- inhibition [1]: inactive

SMILES: O=C(O)c1ccccc1
- inhibition [1]: Active
